According to PubChem BioAssay AID1419 (Emory University Molecular Libraries Screening Center, 2008):
Calls of active or inactive are those of the source. No rule for the calls is given here.

Assay: EBV protein-peptide binding inhibitors, dose response, biochemical, fluorescence polarization (AID 1419)
Details: cell-free protein-peptide binding, 2 h; for fold change: measured here: P channel fold over control, at 54 µM

Structure (SMILES) | IC50 | fold change
Cc1ccc2nc(SCC(=O)Nc3ccccc3N3CCOCC3)c(C#N)cc2c1 | > 54 µM (inactive) | 1.02
COc1ccc(Cl)cc1CN1CCN(c2nc(C)cc(C)c2C#N)CC1 | 18.9 µM | 2.25
COC(=O)c1cc2c(C)c(C)c3ccccn3c-2c1C(=O)OC | 3.61 µM | 2.38
CCN(CC)CCN1C(=O)c2cccc3cc(N)cc(c23)C1=O | 3.39 µM | 3.91
Fc1ccc(NCc2cccnc2)cc1F | 2.14 µM | 3.89
O=C1c2ccccc2-c2onc3ccc(NCc4ccco4)c1c23 | < 0.42 µM | 61.5
CN(C)c1ccc(/C=C2\SC(=O)N(CC(O)Cn3c4ccccc4c4ccccc43)C2=O)cc1 (centres undefined) | 2.46 µM | 10.3
CN(CCC#N)C(=O)COC(=O)c1c2c(nc3ccccc13)/C(=C/c1ccco1)CC2 | 3.18 µM | 2.86
Cn1c(=O)c(N)c2c3c(c(Br)ccc31)C(=O)c1ccccc1-2 | < 0.42 µM | 98.9
COc1cc(-c2ccc(Nc3ccccc3C(=O)O)c(OC)c2)ccc1Nc1ccccc1C(=O)O | > 54 µM (inactive) | 0.9
O=c1ccc2[n+]([O-])c3ccc(O)cc3oc-2c1 | 1.34 µM | 5.06
Cc1ccnc(N2C(=O)c3cccc4c([N+](=O)[O-])ccc(c34)C2=O)c1 | 3.48 µM | 2.33
CCN1CC=C2C(C1)C(c1ccc(Cl)s1)C(C#N)=C(N)C2(C#N)C#N (centres undefined) | 0.95 µM | 9.28
CS(=O)(=O)Nc1nc2n(n1)C(c1ccccc1)C=C(c1ccc(Br)cc1)N2 (centres undefined) | 5.72 µM | 2.76
Cc1cc[n+](-c2[nH]c(=O)sc2/C=N/NC([S-])=Nc2ccccc2)cc1C | > 54 µM (inactive) | 1.95
O=C(Nc1cccc(Cl)c1)c1cc(N=Nc2ccc([N+](=O)[O-])cc2Cl)ccc1O | 17.7 µM | 0.99
CC[C@@H](CO)NC(=O)[C@@H]1C=C2c3cccc4c3c(cn4C)C[C@H]2N(C)C1 | > 54 µM (inactive) | 1.44
N#Cc1cccc(NC(=O)CSc2ccc3c4c(cccc24)C(=O)c2ccccc2-3)c1 | 5.72 µM | 3.94
CC1CCCCC1NC(=O)CN1C(=O)c2cccc(N)c2C1=O (centres undefined) | 2.35 µM | 2.47
O=C(C1=C(O)C(=O)N(c2ncccn2)C1c1cccs1)c1ccco1 (centres undefined) | 5.21 µM | 1.87
CCOC(=O)c1oc2cc(OCC(=O)OC)ccc2c(=O)c1-c1ccc(OC)c(OC)c1 | > 54 µM (inactive) | 0.99

Structure (SMILES) | IC50 | fold change
CCOC(=O)/C(C#N)=C/c1ccc(N2CCN(Cc3ccccc3)CC2)cc1 | 40.3 µM (inactive) | 9.09
NC(=O)c1cc2ccc(O)cc2oc1=NCc1ccccc1 | < 0.42 µM | 34.3
O=C1CSC(=S)N1/N=C/c1ccc(O)c(O)c1O | 2.61 µM | 1.04
O=C(Nc1ccc2[nH]c3c(c2c1)CCCC3)c1ccco1 | 27.9 µM | 2.83
CC(=O)N/N=C/c1cc(C(C)(C)C)cc(/C=N/NC(C)=O)c1O | 4.05 µM | 3.13
NC(=S)n1[nH]c(-c2ccc([N+](=O)[O-])cc2)c(N=Nc2cccc([N+](=O)[O-])c2)c1=O | 3.71 µM | 1.14
O=[N+]([O-])c1cccc(-c2cn3nc(-c4ccccc4)c(-c4ccccc4)nc3n2)c1 | 5.71 µM | 6.61
Nc1c(C(=O)NC2CC2)sc2nc3c(c(-c4ccco4)c12)CC/C3=C/c1ccco1 | 1.32 µM | 3.52
CC1=CC(=C(C#N)c2nc3ccccc3s2)C=C(C)N1Cc1ccco1 | 3.8 µM | 15.7
O=C(Nc1cccc(S(=O)(=O)NC2=NCCC2)c1)c1cc(-c2ccco2)nc2ccccc12 | 2.74 µM | 1.11
C#CCn1cc(C=C2C(=O)c3ccccc3C2=O)c2ccccc21 | 9.87 µM | 4.31
O=C(Nc1nnc(Cc2ccccc2)s1)c1cnccn1 | > 54 µM (inactive) | 1.06
Cc1nnc(N2C(=O)C(O)=C(C(=O)c3ccco3)C2c2ccc(F)cc2)s1 (centres undefined) | 10.4 µM | 2.42
CCCn1nc(-c2ccccc2)c2nc3ccccc3nc21 | 2.37 µM | 32
O=C1/C(=C/c2ccco2)SC(=S)N1c1cccnc1 | > 54 µM (inactive) | 1.09
CCN(CC)c1ccc(N=Cc2c(O)n(-c3ccc(OC)cc3)c(=O)[nH]c2=O)cc1 | 6.01 µM | 17.1
CCOCCCn1c(=NC(=O)c2cccs2)c(C#N)cc2c(=O)n3cccc(C)c3nc21 | 7.53 µM | 4.61
CC(C)OC(=O)CC(=O)c1sc2nc3c(cc2c1N)CN(C)CC3 | > 54 µM (inactive) | 1.29
O=c1oc2c3c4c(cc2c(C(F)(F)F)c1CCN1CCOCC1)CCCN4CCC3 | < 0.42 µM | 35.9
Cc1c(O)c2c3c(cccc3c1O)C(=O)N(c1ccccc1)C2=O | 1.41 µM | 7.05
CCOc1ccc(-c2csc(NC(=O)CSC3=NC(=O)CN3C(C)=O)n2)c2ccccc12 | > 54 µM (inactive) | 0.947

Structure (SMILES) | IC50 | fold change
O=C(NC1CC1)c1cc(-c2ccco2)nc2ccccc12 | 3.96 µM | 1.06
O=c1oc2cc(O)ccc2cc1-c1nc2c(s1)CCc1ccccc1-2 | < 0.42 µM | 37.6
CN1Cc2c(c(C#N)c(N)n(C)c2=S)CC1(C)C | > 54 µM (inactive) | 1.89
O=C1NC(=Nc2ccc(Cl)cc2)/C(=C/c2ccco2)S1 | 7.25 µM | 0.667
Cc1ccccc1-n1c(SCc2c(C)noc2C)nnc1-c1cccnc1 | 3.57 µM | 4.88
Cc1ccc(C)n1-c1cc(S(=O)(=O)N2CCOCC2)ccc1N1CCCC1 | > 54 µM (inactive) | 1.02
CCN1C(=O)/C(=C/C2=Cc3ccccc3OC2C)SC1=S (centres undefined) | 17.2 µM | 5.33
Oc1c(Cl)cc(Cl)c(Cl)c1Cc1c(O)c(Cl)cc(Cl)c1Cl | 5.97 µM | 0.987
Cc1cc(Br)c2nc3c(c(C(=O)O)c2c1)CCCCC3 | > 54 µM (inactive) | 1.06
COc1ccc(-c2c(C#N)c(N)nc3sc(C(=O)c4ccc(C)cc4)c(N)c23)cc1 | 23.5 µM | 5.33
O=C(CSc1nnc(SCc2ccccc2)s1)N/N=C/C=C\c1ccco1 | > 54 µM (inactive) | 1.04
CN1C=CC2=C(C#N)C(N)C(C#N)(C#N)C(c3ccccc3)C2C1 (centres undefined) | 4.53 µM | 3.69
COc1ccccc1N1C(=O)C2C(C(=O)c3ccccc3)=NN(c3ccccc3)C2C1=O (centres undefined) | 8.66 µM | 8.64
N#CC1CC(c2ccc([N+](=O)[O-])cc2)=NN1c1ccc([N+](=O)[O-])cc1 (centres undefined) | 3.86 µM | 6.23
CC1=CC(=C(C#N)c2nc3ccccc3s2)C=C(C)N1c1ccc(F)cc1 | 7.09 µM | 38.9
Cc1c2ccccc2nc2c(F)c(N(C)C)c(F)c(F)c12 | < 0.42 µM | 8.81
Oc1[nH]c2ccccc2c1N=Nc1ccccc1 | 18.8 µM | 21.6
O=C1CCNc2c(Cl)cc(Cl)cc21 | 11.1 µM | 2.51
CCCCCC(=O)N/N=C/c1ccc(N(C)C)cc1 | > 54 µM (inactive) | 1.05
O=C(C1=NN(c2ccccc2)C2C(=O)N(c3ccccc3Cl)C(=O)C12)c1ccccc1 (centres undefined) | 6.16 µM | 8.43
O=C(c1nc2n(n1)C(c1ccc(Cl)cc1)C=C(c1ccccc1)N2)N1CCOCC1 (centres undefined) | 2.27 µM | 5.19

Structure (SMILES) | IC50 | fold change
O=c1[nH]n2c(=O)c3c([nH]c2c1N=Nc1cccc(Cl)c1)CCC3 | > 54 µM (inactive) | 0.94
CCCC(=O)NC(Oc1ccc(C(C)=O)cc1)C(Cl)(Cl)Cl (centres undefined) | > 54 µM (inactive) | 0.993
CCN(CC)c1ccc(C=C2C(=O)OC(c3ccccc3)OC2=O)cc1 (centres undefined) | 14.6 µM | 10.8
O=C(N=Nc1c(O)[nH]c2ccccc12)c1cc(-c2cccs2)[nH]n1 | 19.6 µM | 0.72
COc1ccc(-n2c(C)cc(/C=C3/SC(=S)N(C)C3=O)c2C)cc1 | 23.5 µM | 7.53
CCn1c(CSc2n[nH]c(N)n2)nc2cc(C(=O)O)ccc21 | 4.18 µM | 5.1
CCn1c(COc2ccccc2C)nnc1SCC(=O)N1CCC(C)CC1 | > 54 µM (inactive) | 0.897
O=C(CSc1nc(-c2ccc(F)cc2)nc2c1Cc1ccccc1O2)Nc1ccc(C(=O)O)cc1 | 2.9 µM | 1.11
Cc1nn(C)c(C)c1N1C(=O)c2cccc3c(N)ccc(c23)C1=O | < 0.42 µM | 203
Cc1[nH]c(=O)[nH]c(=O)c1CSCC(=O)OCC(=O)Nc1ccccn1 | > 54 µM (inactive) | 1.09
CN(C)c1ccc(/C=C/C(=O)c2cccc(Br)c2)cc1 | 8.66 µM | 11.4
Cc1ccn(C(=O)c2ccc(NC(=O)C3CCCCC3)cc2)n1 | > 54 µM (inactive) | 0.987
Cc1ccc(NC(=O)CN2C(=O)/C(=C3\SC(=S)N(C4CCS(=O)(=O)C4)C3=O)c3ccccc32)cc1 (centres undefined) | 20.4 µM | 0.67
COc1ccc(-c2nnc(-c3cc4c(ccc5ccccc54)oc3=O)o2)cc1 | 12.9 µM | 4.21
Cc1cc(=O)oc2cc(OCC(=O)N/N=C/c3cc([N+](=O)[O-])ccc3O)ccc12 | 4.65 µM | 1
Cc1c2ccccc2nc2c(F)c(NC(C)C)c(F)c(F)c12 | < 0.42 µM | 4.96
O=C(c1ccccc1)c1ccc(O)cc1O | < 0.42 µM | 48.2
Cc1ccc2[nH]c(O)c(N=NC(=O)c3ccc(NS(=O)(=O)c4cccs4)cc3)c2c1 | > 54 µM (inactive) | 0.957
Cc1ccc(C)c2nc3sc(C(=O)N4CCCc5ccccc54)c(N)c3cc12 | 1.24 µM | 11.6
